Measurements: ChEMBL document CHEMBL1201862, “PubChem BioAssay data set” (2004)
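1) Cells in 96-well plates. 2) Compound, 48 h, 5 concentrations. 3) Linear interpolation between surrounding doses. 4) Unreached endpoint = highest concentration. At the GI50, growth is halved.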 Activity calls are given as the source filed them. Cut-off read from the data, not from the text of the source: active = GI50 up to about 1.1 µM and inactive = higher.

Tests used:
Assay in all cases: DTP human tumour cell line panel, 48 h
SK-OV-3 = system: SK-OV-3
UACC-257 = system: UACC-257
SNB-75 = system: SNB-75
SK-MEL-28 = system: SK-MEL-28
SN12C = system: SN12C
RXF 393 = system: RXF 393
ACHN = system: ACHN
SF-268 = system: SF-268
SK-MEL-2 = system: SK-MEL-2
NCI-H23 = system: NCI-H23
SF-295 = system: SF-295
HOP-92 = system: HOP-92
IGROV-1 = system: IGROV-1
UO-31 = system: UO-31
HCC 2998 = system: HCC 2998
COLO 205 = system: COLO 205
SW-620 = system: SW-620
TK-10 = system: TK-10
RPMI-8226 = system: RPMI-8226
UACC-62 = system: UACC-62

Measured: GI50

CSc1ncc2c(n1)sc1c(=O)n(-c3ccccc3)cnc12
inactive: SK-OV-3 > 100 µM | UACC-257 > 100 µM | SNB-75 > 100 µM | SK-MEL-28 > 100 µM | SN12C > 100 µM | RXF 393 > 100 µM | ACHN > 100 µM | SF-268 > 100 µM | SK-MEL-2 > 100 µM | NCI-H23 > 100 µM | SF-295 > 100 µM | HOP-92 > 100 µM | IGROV-1 > 100 µM | UO-31 > 100 µM | HCC 2998 > 100 µM | COLO 205 > 100 µM | SW-620 > 100 µM | TK-10 > 100 µM | RPMI-8226 > 100 µM | UACC-62 > 100 µM

Cc1cc(C)c(C2=NO[C@@H]3C(=O)N(c4ccc(Cc5ccc(N6C(=O)[C@H]7C(c8c(C)cc(C)cc8C)=NO[C@H]7C6=O)cc5)cc4)C(=O)[C@H]23)c(C)c1
inactive: SK-OV-3 > 100 µM | UACC-257 68.4 µM | SNB-75 > 100 µM | SK-MEL-28 > 100 µM | SN12C > 100 µM | RXF 393 > 100 µM | SF-268 > 100 µM | SK-MEL-2 > 100 µM | NCI-H23 > 100 µM | SF-295 > 100 µM | HOP-92 > 100 µM | IGROV-1 > 100 µM | UO-31 > 100 µM | HCC 2998 > 100 µM | COLO 205 > 100 µM | SW-620 > 100 µM | TK-10 > 100 µM | RPMI-8226 > 100 µM | UACC-62 > 100 µM

Cc1cc(C)n(-c2c(O)ccc(O)c2-n2nc(C)cc2C)n1
inactive: SK-OV-3 > 100 µM | SNB-75 > 100 µM | SK-MEL-28 > 100 µM | SN12C > 100 µM | RXF 393 > 100 µM | ACHN > 100 µM | SF-268 > 100 µM | SK-MEL-2 > 100 µM | NCI-H23 > 100 µM | SF-295 81.3 µM | HOP-92 > 100 µM | IGROV-1 > 100 µM | UO-31 > 100 µM | HCC 2998 > 100 µM | COLO 205 > 100 µM | SW-620 > 100 µM | TK-10 > 100 µM | RPMI-8226 > 100 µM | UACC-62 > 100 µM

COC(=O)C1=C(C(=O)OC)C2(C)C=CC1O2 (configuration not stated)
inactive: SK-OV-3 > 100 µM | UACC-257 15.9 µM | SNB-75 24.3 µM | SK-MEL-28 16 µM | SN12C 17.5 µM | RXF 393 20.9 µM | ACHN 5.78 µM | SF-268 31 µM | SK-MEL-2 21.4 µM | NCI-H23 17.8 µM | HOP-92 5.01 µM | IGROV-1 19.4 µM | UO-31 4.51 µM | HCC 2998 16.2 µM | COLO 205 4.22 µM | SW-620 4.68 µM | TK-10 2.49 µM | RPMI-8226 1.91 µM | UACC-62 17.6 µM
